The values that follow are results of earlier work, collected in EP2681209B1, “COMPOUNDS AND METHODS FOR THE TREATMENT OF PAIN AND OTHER DISORDERS” (Aquilus Pharmaceuticals, Inc, priority 2011, dated 2012).

As usually defined, the IC50 is the midpoint of a concentration-inhibition curve.

The structures appear in SMILES notation.

One data set deals with TNF-alpha. Conditions: background literature; cited from earlier work.
The target of a further data set is MMP-9 (Homo sapiens, UniProt P14780). The following applies: background literature; cited from earlier work.
Sequence of MMP-9 (P14780 94-707, species assumed): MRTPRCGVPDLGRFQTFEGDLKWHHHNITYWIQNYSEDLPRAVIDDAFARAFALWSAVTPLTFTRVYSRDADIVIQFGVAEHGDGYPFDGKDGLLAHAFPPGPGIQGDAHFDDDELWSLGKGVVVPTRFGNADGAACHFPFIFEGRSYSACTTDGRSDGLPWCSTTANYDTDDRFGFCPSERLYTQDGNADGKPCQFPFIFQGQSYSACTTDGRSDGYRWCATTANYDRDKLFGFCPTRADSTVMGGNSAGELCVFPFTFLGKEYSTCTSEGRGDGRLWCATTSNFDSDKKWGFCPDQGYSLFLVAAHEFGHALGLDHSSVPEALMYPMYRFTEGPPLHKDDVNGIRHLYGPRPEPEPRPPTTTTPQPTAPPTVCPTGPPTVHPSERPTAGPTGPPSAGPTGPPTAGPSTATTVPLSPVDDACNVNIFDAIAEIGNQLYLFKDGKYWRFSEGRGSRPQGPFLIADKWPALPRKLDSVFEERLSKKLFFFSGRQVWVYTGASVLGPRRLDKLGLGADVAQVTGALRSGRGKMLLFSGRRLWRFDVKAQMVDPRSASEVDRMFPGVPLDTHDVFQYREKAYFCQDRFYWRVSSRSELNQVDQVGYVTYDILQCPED

Regarding `CC(C)C[C@H](CC(=O)NO)C(=O)N[C@@H](Cc1ccc2ccccc2c1)C(=O)N[C@@H](C)C(N)=O` [TAPI-0], the figures for the IC50 in the data set on TNF-alpha and at MMP-9 were roughly 100 nM and 0.5 nM, respectively.
